Like-named read-outs stand apart in the source and are kept apart here.
Columns and labels:
[1] = test system: T. b. brucei Lister 427 bloodstream forms; assay: T. brucei bloodstream form viability assay (SYBR Green); type: cell-based, Trypanosoma brucei; conditions: for EC50: bloodstream forms, 72 h
Protocol: Bloodstream forms of T. b. brucei Lister 427 were cultured in complete HMI-9 medium in T25 suspension culture flasks (Thermo Scientific, Cat. 12-566-84) and maintained at 37 °C and 5% CO2. Trypanosomes were kept in log-phase growth and passaged every 48 h. […] Pentamidine were used as a positive control for T. brucei assay. Compounds were diluted with fresh HMI-9 medium (99 µL/well). Parasites in log-phase were suspended at 2 × 10^5 parasites/mL in HMI-9 medium and then added to each well (100 µL) to give 2 × 10^4 trypanosomes/well. Assay plates were incubated at 37 °C and 5% CO2 for 72 h. Parasite lysate was obtained by addition of 50 µL/well of lysis solution (0.012% saponin, 0.12% Triton X-100, 7.5 mM ETDA, 30 mM Tris, pH 7.5) containing 0.3 µL/mL SYBR Green I (10,000× in DMSO; Invitrogen, Carlsbad, CA, USA). Assay plates were incubated in the dark for 1 h at room temperature. Fluorescence was measured at 485 nm excitation and 535 nm emission wavelengths using an EnVision multilabel plate reader (PerkinElmer, Waltham, MA, USA). In each assay plate, parasite viability was normalized relative to positive (pentamidine) and negative (0.5% DMSO) controls in each assay plate. Assays were performed in biological and technical duplicates, and dose–response and EC50 data were generated with GraphPad Prism 9 using a sigmoidal four parameter logistic curve.

[2] = test system: T. cruzi (infecting C2C12); assay: T. cruzi intracellular amastigote assay in C2C12 cells (high content imaging); type: cell-based, Trypanosoma cruzi; conditions: for EC50: intracellular amastigotes, 72 h, read-out: EC50 T. cruzi (infecting C2C12)
Protocol: Mouse C2C12 myoblasts (ATCC CRL-1772) were cultivated in RPMI 1640 medium supplemented with 5% FBS and kept at 37 °C and 5% CO2. T. cruzi CAI-72 trypomastigotes were obtained from the supernatant of C2C12 cells infected four to seven days previously. For the assay, 500 C2C12 cells were mixed with 7500 T. cruzi parasites and seeded into 384-well plates at a 50 µL final volume. Test compounds and reference drugs (Benznidazole and K11777) were pre-spotted into the 384 well black bottom plates prior to the addition of cells and parasites with final assay concentration of 20 µM to 0.02 µM. The plates were incubated at 37 °C^, 5% CO2 for 72 h. Cultures were then fixed with 4% formaldehyde and 0.5 µg/mL DAPI (diamidino-2-phenylindole) was added for staining nucleic acids. Plates were kept protected from light for 1 h and then imaged in an ImageXpress Micro XLS automated high content imager (Molecular Devices, San Jose, CA, USA). Imaging and data analysis were performed as described for L. donovani amastigotes on biological triplicates.

[3] = test system: S. mansoni, adult worm; assay: S. mansoni adult worm ex vivo phenotypic screen (severity score); type: cell-based, Schistosoma mansoni; conditions: for severity score, adult S. mansoni: maximum of 4; for S. mansoni, adult worm: least concentration at which a severity score of 4 was recorded: after 24 h, tested at 10, 5, 2.5 and 1.25 µM, EC50
Text: The Naval Medical Research Institute (NMRI) isolate of S. mansoni was used. The parasite was cycled between Biomphalaria glabrata snails and male Golden Syrian hamsters (infected at 4–6 weeks of age) as intermediate and definitive hosts, respectively. Hamsters were infected and maintained in accordance with protocols approved by the Institutional Animal Care and Use Committee (IACUC) at the University of California San Diego. The acquisition, preparation and in vitro maintenance of S. mansoni have been described. Briefly, adult worms were harvested from hamsters 42 days post-infection in RPMI or DMEM, and washed five times prior to maintenance overnight at 37 °C and 5% CO2 in Basch medium containing 4% heat-inactivated FBS, 100 µg/mL streptomycin and 100 U/mL penicillin.
Ex vivo screens with adults employed 24-well flat-bottomed plates and approximately 5 males and 2–3 females/well. The complex and often dynamic phenotypic responses that the schistosome parasite is capable of were observed using a Zeiss Axiovert A1 inverted microscope at 24 h. Observations were classified using a constrained nomenclature that involves simple “descriptors” to convey changes in shape, motility and appearance, and the inability of the male worm to adhere to the bottom of the well, compared to DMSO controls. Each descriptor was given a value of 1 and these were added up to yield a “severity score” with a maximum of 4. Evidence of degeneracy or death was awarded a value of 4 as was damage to the tegument (parasite’s surface) on the understanding this would compromise survival in vivo. […] Data were averaged across two experiments for each compound concentration tested.

[4] = test system: E. histolytica HM1:IMSS trophozoites; assay: E. histolytica trophozoite viability assay (CellTiter-Glo); type: cell-based, Entamoeba histolytica; conditions: 48 h
Protocol: Trophozoites of E. histolytica HM1:IMSS were maintained in vitro as described in TYI-S-33 medium supplemented with penicillin (100 U/mL) and streptomycin (100 µg/mL). Test compounds were serially diluted and transferred to a white solid bottomed 96-well tissue culture plate (E&K Scientific, Swedesboro, NJ, USA) followed by addition of 5000 E. histolytica trophozoites per well for a final volume of 100 µL TYI-S-33 medium and a final concentration of compounds ranging from 50 to 0.39 µM. Metronidazole were used as positive control and assay plates were incubated for 48 h at 37 °C. The plates maintained kept anaerobically using the GasPak EZ Anaerobic Gas Generating Pouch System (VWR). Parasite viability was measured in triplicate using the CellTiter-Glo luminescence kit (Promega G9243) in an Envision plate reader (Perkin Elmer, Waltham, MA, USA). EC50 values were obtained using GraphPad Prism 9 Software.

[5] = test system: B10R cells; assay: Cytotoxicity to B10R host cells (nuclei count in the amastigote assay); type: cell-based; conditions: mouse monocyte host cells, 72 h
Protocol: For the intracellular amastigote stage assay, L. donovani was incubated at a density of 1 × 10^6 parasites/mL for six days at 29 °C before infection to enrich the proportion of metacyclic promastigotes. B10R monocyte cell lines were cultured in RPMI supplemented with 10% FBS and 1%penicillin/streptomycin at 37 °C in 5% CO2. After 72 h, cells were counted with a hemocytometer and mixed with the six-day-old parasites. […] Plates were incubated at 37 °C and 5% CO2 for 72 h. Cultures were then fixed with 4% formaldehyde solution for 30 min and stained with 0.5 µg/mL DAPI (diamidino-2-phenylindole). Plates were then imaged using an ImageXpress Micro XLS automated high content imager (Molecular Devices, San Jose, CA, USA) using a 10× air objective. A custom image analysis module generated in ImageXpress was used to count the nuclei of host and parasite cells. EC50 values were obtained using the GraphPad Prism 9 Software with biological triplicates.

[6] = at all concentrations (10, 5, 2.5 and 1.25 µM), 24 h

SMILES	EC50 ([1]; Trypanosoma brucei) [nM]	EC50 ([2]; Trypanosoma cruzi, C2C12, 72 h) [nM]	severity score, adult S. mansoni ([3]; 10 µM, 24 h)	S. mansoni, adult worm: least concentration at which a severity score of 4 was recorded [3] [µM]	EC50 ([4]; Entamoeba histolytica) [nM]	EC50 [1] [nM]	EC50 [2] [nM]	severity score, adult S. mansoni [3, 6]	CC50 [5] [nM]	EC50 [4] [nM]	T. brucei eliminated ([1]; 5 µM) [%]	T. cruzi intracellular parasites eliminated ([2]; 5 µM) [%]	response of adult S. mansoni ([3]; 5 µM, 24 h)
COc1ccc(NC(=O)CCC(=O)O)cc1 [MS26, 4-(4-methoxyphenylamino)-4 oxobutanoic acid]	> 4000	3210	zero	>10.0	> 10000	–	–	–	–	–	–	–	–
CCC[CH2][Sn]([CH2]CCC)([O]C(=O)CCC(=O)Nc1ccc(OC)cc1)[O]C(=O)CCC(=O)Nc1ccc(OC)cc1 [MS26Bu2]	–	–	–	1.25	–	290	530	4	1060	–	–	–	–
CCC[CH2][Sn]([CH2]CCC)([CH2]CCC)[O]C(=O)CCC(=O)Nc1ccc(OC)cc1 [MS26Bu3]	–	–	–	1.25	–	50	110	4	170	8700	–	–	–
CCC[CH2][Sn]([Cl])([Cl])[O]C(=O)CCC(=O)Nc1ccc(OC)cc1 [MS26BuSnCl2]	–	–	zero	>10.0	–	> 4000	> 20000	–	620	–	–	–	–
COc1ccc(NC(=O)CCC(=O)[O][Sn]([CH]2CCCCC2)([CH]2CCCCC2)[CH]2CCCCC2)cc1 [MS26Cy3]	–	–	–	1.25	–	80	300	4	110	–	–	–	–
C[CH2][Sn]([CH2]C)([CH2]C)[O]C(=O)CCC(=O)Nc1ccc(OC)cc1 [MS26Et3]	–	–	–	–	–	90	240	4	–	5600	> 99	> 95	–
COc1ccc(NC(=O)CCC(=O)[O][Sn]([CH3])([CH3])[CH3])cc1 [MS26Me3]	–	–	lethal	10	–	> 4000	> 20000	–	4870	–	–	–	the same response as MS26Oct2 at 10 µM
COc1ccc(NC(=O)CCC(=O)[O-])cc1.[Na+] [MS26Na, sodium 4-(4-methoxyphenylamino)-4 oxobutanoate]	–	–	zero	>10.0	–	> 4000	4270	–	4550	–	–	–	–
COc1ccc(NC(=O)CCC(=O)[O][Sn]([c]2ccccc2)([c]2ccccc2)[c]2ccccc2)cc1 [MS26Ph3]	–	–	–	1.25	–	90	> 20000	4	290	–	–	–	–
C=[CH][Sn]([CH]=C)([O]C(=O)CCC(=O)Nc1ccc(OC)cc1)[O]C(=O)CCC(=O)Nc1ccc(OC)cc1 [MS26vin2]	–	–	zero	>10.0	–	> 4000	> 20000	–	> 20000	–	–	–	–

— publication PMC9785441, “A Broad Spectrum Antiparasitic Activity of Organotin (IV) Derivatives and Its Untargeted Proteomic Profiling Using Leishmania donovani” (Pathogens, 2022)
